Laboratory results reported in patent publication US9216978B2, “Ring-fused pyrimidines and triazines and use thereof for the treatment and/or prophylaxis of cardiovascular diseases” (BAYER INTELLECTUAL PROPERTY GMBH, priority 2010, dated 2015).

Key:
aorta = assay: Vessel-relaxing action in vitro (phenylephrine-contracted aorta rings); conditions: Oryctolagus cuniculus; rabbit aorta rings, phenylephrine contraction; concentration reducing control contraction by 50%
Description: B-1. Vessel-Relaxing Action In Vitro
Rabbits are stunned with a blow on the back of the neck and exsanguinated. The aorta is removed, freed from adhering tissue, separated into rings with a width of 1.5 mm, and placed individually, with preloading, in 5-ml organ baths with carbogen-gassed Krebs-Henseleit solution at 37° C. with the following composition (mM in each case): sodium chloride: 119; potassium chloride: 4.8; calcium chloride dihydrate: 1; magnesium sulphate heptahydrate: 1.4; potassium dihydrogen phosphate: 1.2; sodium hydrogen carbonate: 25; glucose: 10. The contraction force is recorded with Statham UC2 cells, amplified and digitized via an A/D converter (DAS-1802 HC, Keithley Instruments Munich) and recorded in parallel on a continuous-line recorder. To produce contraction, phenylephrine is added to the bath cumulatively in increasing concentration. After several control cycles, the test substance is added in increasing dosage in each subsequent pass and the level of contraction is compared with the level of contraction reached in the immediately preceding pass. This is used for calculating the concentration that is required to reduce the level of the control value by 50% (IC50 value). The standard application volume is 5 μl, and the proportion of DMSO in the bath solution corresponds to 0.1%.

[1] = Determination of pharmacokinetic parameters after intravenous administration in rats; type: in vivo, rat; conditions: intravenous administration of 0.3 mg/kg; for MRT / half-life: male, Wistar, rat, plasma; for MRT: read-out: mean residence time; for half-life: read-out: terminal half-life (converted)
Description: B-4. Determination of Pharmacokinetic Parameters after Intravenous and Oral Administration
The pharmacokinetic parameters of the compounds of the formula (I) according to the invention are determined in male CD-1 mice, male Wistar rats and/or female beagles. The administration volume is 5 ml/kg for mice, 5 ml/kg for rats and 0.5 ml/kg for dogs. Intravenous administration is via a formulation of species-specific plasma/DMSO (99/1) in the case of mice and rats and via water/PEG400/ethanol (50/40/10 or 30/60/10) in the case of dogs. For easier removal of blood, a silicone catheter is inserted into the right Vena jugularis externa of the rats before the administration of substance. The surgical intervention takes place one day prior to the experiment with isofluran anaesthesia and administration of an analgetic (atropine/rimadyl (3/1) 0.1 ml s.c.). Substance administration is as i.v. bolus in the case of mice and rats and via a 15-minute infusion in the case of dogs. Removal of blood is after 0.033, 0.083, 0.17, 0.5, 1, 2, 3, 4, 6, 7 and 24 hours in the case of rats, after 0.033, 0.083, 0.17, 0.5, 1, 2, 3, 4, 6, 7, 24, 48 and 72 hours in the case of mice and after 0.083, 0.25, 0.28 0.33, 0.42, 0.75, 1, 2, 3, 4, 6, 7 and 24 hours in the case of dogs. For all species, oral administration of the dissolved substance via gavage is carried out based on a water/PEG400/ethanol formulation (50/40/10). Here, the removal of blood from rats is after 0.083, 0.17, 0.5, 0.75, 1, 2, 3, 4, 6, 7 and 24 hours and from dogs after 0.083, 0.17, 0.5, 0.75, 1, 2, 3, 4, 6, 7, 24, 30 and 48 hours. The blood is removed into heparinized tubes. The blood plasma is then obtained by centrifugation; if required, it can be stored at −20° C. until further processing.
An internal standard (ZK 228859) is added to the samples of the compounds of the formula (I) according to the invention, calibration samples and QCs, and the protein is precipitated using excess acetonitrile. After addition of an ammonium acetate buffer (0.01 M, pH 6.8) and subsequent vortexing, the mixture is centrifuged at 1000 g and the supernatant is examined by LC-MS/MS (API 4000, AB Sciex). Chromatographic separation is carried out on an Agilent 1100-HPLC. The injection volume is 10 μl. The separation column used is a Phenomenex Luna 5μ C8(2) 100 A 50×2 mm, adjusted to a temperature of 40° C. A binary mobile phase gradient at 500 μl/min is used (A: 0.01 M ammonium acetate buffer pH 6.8, B: 0.1% formic acid in acetonitrile): 0 min (90% A), 1 min (90% A), 3 min (15% A), 4 min (15% A), 4.50 min (90% A), 6 min (90% A). The temperature of the Turbo V ion source is 500° C. The following MS instrument parameters are used: curtain gas 15 units, ion spray voltage 4.8 kV, gas 1 45 units, gas 2 35 units, CAD gas 40 units. The substances are quantified by peak heights or areas using extracted ion chromatograms of specific MRM experiments.
The pharmacokinetic parameters such as AUC, Cmax, t1/2 (terminal half-life), MRT (mean residence time) and CL (clearance) are calculated by means of the validated pharmacokinetics calculation program KinEx (Vers. 2.5 and 3) from the plasma concentration-time curves obtained.
As substance quantification takes place in plasma, the blood/plasma distribution of the substance must be determined for appropriate adjustment of the pharmacokinetic parameters. For this, a defined amount of the substance in heparinized whole blood of the corresponding species is incubated for 20 min in the tumbling roller mixer. After centrifugation at 1000 g, the plasma concentration is measured (see above) and the Cblood/Cplasma value is determined by finding the quotient.
Following intravenous administration of 0.3 mg/kg of Example 1, 18, 19 and 27 in rats, the following values were recorded: […]

[2] = target: T1, recombinant guanylate cyclase reporter cell line (Rattus norvegicus, UniProt P19686+P20595); assay: Action on recombinant guanylate cyclase reporter cell line; type: cell-based
T1 construct: expressed in transfected cells
T1 sequence (P20595 1-619): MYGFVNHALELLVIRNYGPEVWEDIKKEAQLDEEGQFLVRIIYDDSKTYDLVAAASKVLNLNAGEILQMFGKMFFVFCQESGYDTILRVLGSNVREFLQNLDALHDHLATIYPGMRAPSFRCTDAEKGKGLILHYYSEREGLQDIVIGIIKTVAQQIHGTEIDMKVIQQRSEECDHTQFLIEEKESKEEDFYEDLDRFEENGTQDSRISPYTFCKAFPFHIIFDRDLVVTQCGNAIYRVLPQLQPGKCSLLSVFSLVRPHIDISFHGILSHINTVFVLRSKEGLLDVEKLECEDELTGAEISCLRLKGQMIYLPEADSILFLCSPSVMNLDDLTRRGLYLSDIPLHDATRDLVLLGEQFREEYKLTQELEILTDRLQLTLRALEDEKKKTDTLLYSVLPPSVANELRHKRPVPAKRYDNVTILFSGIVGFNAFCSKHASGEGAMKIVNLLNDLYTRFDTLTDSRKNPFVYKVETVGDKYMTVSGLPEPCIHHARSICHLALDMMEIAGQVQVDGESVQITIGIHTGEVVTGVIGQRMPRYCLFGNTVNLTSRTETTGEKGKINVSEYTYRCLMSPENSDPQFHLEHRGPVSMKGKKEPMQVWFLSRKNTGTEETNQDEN
T1 sequence (P19686 1-690): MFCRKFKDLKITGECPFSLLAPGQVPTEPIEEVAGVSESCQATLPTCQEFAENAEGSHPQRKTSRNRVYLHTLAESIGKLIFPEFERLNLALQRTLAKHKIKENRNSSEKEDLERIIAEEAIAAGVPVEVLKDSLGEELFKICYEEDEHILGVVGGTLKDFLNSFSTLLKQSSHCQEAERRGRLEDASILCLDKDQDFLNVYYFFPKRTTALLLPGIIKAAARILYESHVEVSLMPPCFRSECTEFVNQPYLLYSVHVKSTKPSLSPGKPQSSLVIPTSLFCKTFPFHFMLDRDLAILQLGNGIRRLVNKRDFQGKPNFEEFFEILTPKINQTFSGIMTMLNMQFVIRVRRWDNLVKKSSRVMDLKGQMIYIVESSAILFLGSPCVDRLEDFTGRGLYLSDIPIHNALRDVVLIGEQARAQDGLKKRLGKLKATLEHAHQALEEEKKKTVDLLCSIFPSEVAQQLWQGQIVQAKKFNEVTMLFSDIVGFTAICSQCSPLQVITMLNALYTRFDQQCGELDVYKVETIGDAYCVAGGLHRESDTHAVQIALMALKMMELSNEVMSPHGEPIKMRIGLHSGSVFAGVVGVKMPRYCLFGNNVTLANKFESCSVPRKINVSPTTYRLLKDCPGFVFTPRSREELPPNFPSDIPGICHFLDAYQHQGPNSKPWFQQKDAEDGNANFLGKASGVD
Description: B-2. Action on Recombinant Guanylate Cyclase Reporter Cell Line
The cellular action of the compounds according to the invention is determined on a recombinant guanylate cyclase reporter cell line, as described in F. Wunder et al., Anal. Biochem. 339, 104-112 (2005).

IC50 (aorta) [nM] | CLblood [1] [mL/min/kg] | MRT [1] [h] | half-life [1] [h] | MEC (minimal effective concentration) [2] [µM] | Compound
12 | 18.3 | 1.2 | 0.9 | 0.01 | CC1(C)C(=O)Nc2nc(-c3nn(Cc4ccccc4F)c4ncccc34)ncc21 [Example 1, 2-[1-(2-Fluorobenzyl)-1H-pyrazolo[3,4-b]pyridin-3-yl]-5,5-dimethyl-5,7-dihydro-6H-pyrrolo[2,3-d]pyrimidin-6-one]
93 | 7.67 | 1.9 | 1.4 | 0.03 | O=C1Nc2nc(-c3nn(Cc4ccccc4F)c4ncccc34)ncc2C1(O)C(F)(F)F (stereo not drawn) [Example 18, 2-[1-(2-Fluorobenzyl)-1H-pyrazolo[3,4-b]pyridin-3-yl]-5-hydroxy-5-(trifluoromethyl)-5,7-dihydro-6H-pyrrolo[2,3-d]pyrimidin-6-one]
45 |  |  |  | 0.03 | CC1(C)C(=O)Nc2nc(-c3nn(Cc4cccc(F)c4F)c4ncc(F)cc34)nnc21 [Example 20, 3-[1-(2,3-Difluorobenzyl)-5-fluoro-1H-pyrazolo[3,4-b]pyridin-3-yl]-7,7-dimethyl-5,7-dihydro-6H-pyrrolo[2,3-e][1,2,4]triazin-6-one]
15 |  |  |  | 0.03 | CC1(F)C(=O)Nc2nc(-c3nn(Cc4ccccc4F)c4ncccc34)ncc21 (stereo not drawn) [Example 23, 5-Fluoro-2-[1-(2-fluorobenzyl)-1H-pyrazolo[3,4-b]pyridin-3-yl]-5-methyl-5,7-dihydro-6H-pyrrolo[2,3-d]pyrimidin-6-one]
269 |  |  |  | 0.3 | CC(C)(C)OC(=O)CC1(O)C(=O)Nc2nc(-c3nn(Cc4ccccc4F)c4ncccc34)ncc21 (stereo not drawn) [Example 24, tert-Butyl {2-[1-(2-fluorobenzyl)-1H-pyrazolo[3,4-b]pyridin-3-yl]-5-hydroxy-6-oxo-6,7-dihydro-5H-pyrrolo[2,3-d]pyrimidin-5-yl}acetate]
840 |  |  |  | 0.3 | COC(=O)NC1C(=O)Nc2nc(-c3nn(Cc4ccccc4F)c4ncccc34)ncc21 (stereo not drawn) [Example 26, Methyl {2-[1-(2-fluorobenzyl)-1H-pyrazolo[3,4-b]pyridin-3-yl]-6-oxo-6,7-dihydro-5H-pyrrolo[2,3-d]pyrimidin-5-yl}carbamate]
54 | 5.83 | 7.3 | 5.6 | 0.03 | CC1(C)C(=O)Nc2nc(-c3nn(Cc4cccc(F)c4F)c4ncccc34)nnc21 [Example 27, 3-[1-(2,3-Difluorobenzyl)-1H-pyrazolo[3,4-b]pyridin-3-yl]-7,7-dimethyl-5,7-dihydro-6H-pyrrolo[2,3-e][1,2,4]triazin-6-one]
103 |  |  |  | 0.3 | CC1(C)C(=O)Nc2nc(-c3nn(Cc4ccc(F)cc4F)c4ncccc34)nnc21 [Example 28, 3-[1-(2,4-Difluorobenzyl)-1H-pyrazolo[3,4-b]pyridin-3-yl]-7,7-dimethyl-5,7-dihydro-6H-pyrrolo[2,3-e][1,2,4]triazin-6-one]
97 |  |  |  | 0.03 | O=C1Nc2nc(-c3nn(Cc4ccccc4F)c4ncc(F)cc34)ncc2C12CC2 [Example 30, 2′-[5-Fluoro-1-(2-fluorobenzyl)-1H-pyrazolo[3,4-b]pyridin-3-yl]spiro[cyclopropane-1,5′-pyrrolo[2,3-d]pyrimidin]-6′(7′H)-one]
